Experimental data taken from patent US8481543B2, “Compounds for treating parasitic disease” (Oregon Health & Science University, priority 2008, dated 2013).
Read-outs that look alike come from different tables or passages of the source.

Assays:
[1] = test system: Plasmodium falciparum Tm90.C2B strain (multidrug-resistant); assay: Antiplasmodial fluorescence-based SyBr Green assay, Tm90.C2B strain; format: cell-based; conditions: read-out: Antiplasmodial IC50, Tm90.C2B strain
Procedure: (§1) Parasite culture and drug susceptibility assays: Four different laboratory strains of P. falciparum were cultured in human erythrocytes by standard methods under a low oxygen atmosphere (5% O2, 5% CO2, 90% N2) in an environmental chamber (Trager, W., and J. Jensen. 1976. Human malaria parasites in continuous culture. Science 193:673-675). The culture medium was RPMI 1640, supplemented with 25 mM Hepes buffer, 25 mg/liter gentamicin sulfate, 45 mg/liter hypoxanthine, 10 mM glucose, 2 mM glutamine, and 0.5% Albumax II. The parasites were maintained in fresh human erythrocytes suspended at a 2% hematocrit in complete medium at 37° C. Stock cultures were sub-passaged every 3 to 4 days by transfer of infected red cells to a flask containing complete medium and uninfected erythrocytes.
(§2) In vitro antimalarial activity of the test compounds was assessed by a fluorescence-based method described previously by Smilkstein M., N. Sriwilaijaroen, J. X. Kelly, P. Wilairat, and M. Riscoe. 2004. Simple and inexpensive fluorescence-based technique for high-throughput antimalarial drug screening. Antimicrob Agents Chemother 48:1803-6. The experiments were set up in triplicate in 96 well plates with two-fold dilutions of each compound across the plate in a total volume of 100 μl and at a final red blood cell concentration of 2% (v/v). Stock solutions of each compound were prepared by dissolving in DMSO at 10 mM. […] In every case, an additional determination was performed to ensure bracketing of the IC50 value by at least an order of magnitude. Automated pipeting and dilution was carried out by a programmable Precision 2000 robotic station (Bio-Tek, Winooski, Vt.). An initial parasitemia of 0.2% was attained by addition of normal uninfected red cells to a stock culture of asynchronous parasite infected red cells (PRBC). The plates were incubated for 72 hrs at 37° C. in an atmosphere of 5% CO2, 5% O2, and 90% N2. After this period the SyBr Green I dye-detergent mixture (100 μl) was added and the plates were incubated at room temperature for an hour in the dark and then placed in a 96-well fluorescence plate reader (Gemini-EM, […]) for analysis with excitation and emission wavelength bands centered at 497 and 520 nm, respectively.

[2] = test system: Plasmodium falciparum Dd2 strain (multidrug-resistant); assay: Antiplasmodial fluorescence-based SyBr Green assay, Dd2 strain; format: cell-based; conditions: read-out: Antiplasmodial IC50, Dd2 strain
Procedure: as §1, §2

[3] = test system: Plasmodium falciparum 7G8 strain (multidrug-resistant); assay: Antiplasmodial fluorescence-based SyBr Green assay, 7G8 strain; format: cell-based; conditions: read-out: Antiplasmodial IC50, 7G8 strain
Procedure: as §1, §2

[4] = test system: Plasmodium falciparum D6 strain (chloroquine sensitive); assay: Antiplasmodial fluorescence-based SyBr Green assay, D6 strain; format: cell-based
Procedure: as §1, §2

Plasmodium yoelii = assay: Modified Thompson test, suppression of patent infection in mice; format: in vivo; conditions: P. yoelii in CF1 mice; gavage daily for 3 days; smears on 4th day; pharmachins free base in miglyol 812, chloroquine in water
Procedure: Efficacy of compounds in vivo. […] This test monitors suppression of patent infection in female CF1 Swiss albino mice (≈20 gm). A test begins with the inoculation of Plasmodium yoelii parasitized erythrocytes (100,000 to 500,000; obtained from a donor animal) on the first day of the experiment (D0). After 24 hours, the standard agents or pharmachin compounds were administered by gavage at daily intervals for three successive days. Initially the test compounds were examined at 128 mg/kg/day, 64 mg/kg/day, 16 mg/kg/day and 4 mg/kg/day and including a vehicle-only control. […] The parasite burden in each blood sample was determined by direct microscopic analysis of methanol-fixed, Giemsa-stained blood smears. […] The ED50 value is the dosage of drug required to achieve a 50% reduction in parasitemia relative to the vehicle-only control; non-linear regression analysis was employed to generate ED50s from the accumulated data.
Mice were split into groups of 3 each and animals were dosed by gavage at the following dosages: 128 mg/kg; 64 mg/kg; 16 mg/kg; and 3 mg/kg. The drugs were administered daily for 3 days and blood smears were taken on the 4th day. […] ED50 values were calculated by graphical analysis of the dose-response effect.

P. berghei (ANKA/GFP) = assay: Modified 4 day test in infected mice; format: in vivo
Procedure: Follow-up studies with Pharmachin 128 were preformed in mice infected with P. berghei (ANKA/GFP) using a modified 4 day test. Animals (CF1) were inoculated (iv) with 1 million infected red blood cells, obtained from donor animals, and then randomly sorted into groups of 5 mice each.
In this set of experiments Pharmachin 128 was administered daily by gavage as the citrate salt dissolved in water (100 μl) for each of 4 days. Dosing was set at 64, 16, 4, 2, and 1 mg/kg/day, respectively, and including a no drug control. Blood films were prepared on the 5th day (i.e., the day after the final drug dose), fixed in methanol, stained with Giemsa, and viewed microscopically to assess parasitemia.

[5] = test system: P. falciparum strains (D6, Dd2, Tm90.C2B, 7G8); assay: Antiplasmodial SyBr Green assay, summary across strains; format: cell-based, Plasmodium falciparum; conditions: for IC50: Plasmodium falciparum
Procedure: as §1
as §2, with “An initial parasitemia of 0.2% was attained by addition of normal uninfected red cells to a stock culture of asynchronous parasite infected red cells (PRBC). The plates were incubated for 72 hrs at 37° C. in an atmosphere of 5% CO2, 5% O2, and 90% N2.” left out

[6] = multidrug-resistant Tm90.C2B strain, 72 hrs, mean of at least two experiments in triplicate
[7] = Plasmodium falciparum, multidrug-resistant Dd2 strain, 72 hrs, mean of at least two experiments in triplicate
[8] = Plasmodium falciparum, multidrug-resistant 7G8 strain, 72 hrs, mean of at least two experiments in triplicate
[9] = Plasmodium falciparum, D6, 72 h; read-out: Antiplasmodial IC50, D6 strain
[10] = 64 mg/kg/day, gavage, 4 days, citrate salt
[11] = P. berghei in CF1 mice, citrate salt in water by gavage daily for 4 days, parasitemia on 5th day

**Q.** Which IC50 [1, 6] does the source give for `C=C[C@H]1C[N@@]2CC[C@H]1C[C@H]2[C@H](O)c1ccnc2ccc(OC)cc12` [Quinine, reference compound] here?
**A.** The IC50 was 96 nM.

**Q.** What about the IC50 [2, 7] of the same molecule?
**A.** The IC50 was 87 nM.

**Q.** And the IC50 [3, 8]?
**A.** Its IC50 is 29.5 nM.

**Q.** What about the IC50 [4, 9] of the same molecule?
**A.** Its IC50 is 19 nM.

**Q.** With “5.7-Difluoro-3-Methyl-4-(3-t-butylaminpropyl-amino)-Quinoline [Pharmachin 130]” as the molecule, how does the IC50 ([2]; multidrug-resistant Dd2 strain, 72 hrs, mean of at least two experiments in triplicate) read?
**A.** Its IC50 is 21.9 nM.

**Q.** What about the IC50 ([3]; multidrug-resistant 7G8 strain, 72 hrs, mean of at least two experiments in triplicate) of the same molecule?
**A.** The IC50 was 25.9 nM.

**Q.** And the IC50 ([4]; chloroquine sensitive D6 strain; 72 hrs; mean of at least two experiments in triplicate; read-out: Antiplasmodial IC50, D6 strain)?
**A.** The IC50 was 15 nM.

**Q.** For `CCN(CC)CCCNc1c(C)cnc2cc(Cl)ccc12` [Pharmachin 112, 7-Chloro-3-Methyl-4-(3-(diethylamino)-propylamino)-Quinoline], which IC50 [1, 6] is on record?
**A.** The IC50 was 16.6 nM.

**Q.** And the IC50 [2, 7]?
**A.** Its IC50 is 17.7 nM.

**Q.** And the “ED50 (50% reduction in parasitemia)” value (Plasmodium yoelii)?
**A.** Its value is 6.5 mg/kg/day.

**Q.** And the IC50 [4, 9]?
**A.** Its IC50 is 12.8 nM.

**Q.** How did the IC50 [1, 6] turn out when `Cc1cnc2cc(Cl)ccc2c1NCCCNC(C)(C)C` [Pharmachin 128, 7-Chloro-3-Methyl-4-(3-t-butylaminopropylamino)-quinoline] was run?
**A.** The IC50 was 12 nM.

**Q.** What about the IC50 [2, 7] of the same molecule?
**A.** The IC50 was 11.6 nM.

**Q.** What about the “ED50 (50% reduction in parasitemia)” value (Plasmodium yoelii) of the same molecule?
**A.** Its value is 2.5 mg/kg/day.

**Q.** And the “Animals recrudesced 2 weeks after the last dose” value (P. berghei (ANKA/GFP); 16 mg/kg/day group, gavage, 4 days, citrate salt)?
**A.** Its value is 2 of the 5.

**Q.** And the “Bloodstream parasites on 5th day” value (P. berghei (ANKA/GFP); 16 mg/kg/day, gavage, 4 days, citrate salt)?
**A.** Its value is “completely cleared”.

**Q.** What about the “Bloodstream parasites on 5th day” value (P. berghei (ANKA/GFP); [10]) of the same molecule?
**A.** The value was “completely cleared”.

**Q.** And the “Parasitemia over full 30-day examination period (scored as cures)” value (P. berghei (ANKA/GFP); [10])?
**A.** Its value is “remained aparasitemic”.

**Q.** What about the ED50 (P. berghei (ANKA/GFP); [11]) of the same molecule?
**A.** The ED50 was 2.7 mg/kg/day.

**Q.** What about the ED90 (P. berghei (ANKA/GFP); [11]) of the same molecule?
**A.** Its ED90 is 4.7 mg/kg/day.

**Q.** And the IC50 [3, 8]?
**A.** Its IC50 is 11.3 nM.

**Q.** And the IC50 ([5]; range over D6, Dd2, Tm90.C2B, 7G8, read-out: IC50 values ranging, all 4 P. falciparum strains)?
**A.** Its IC50 is 6.2 to 12 nM.

**Q.** And the IC50 [4, 9]?
**A.** Its IC50 is 6.2 nM.

**Q.** What does the source list for `O=C1C(O)=C([C@H]2CC[C@H](c3ccc(Cl)cc3)CC2)C(=O)c2ccccc21` [Atovaquone, reference compound]?
**A.** IC50 [1, 6]: 7700 nM; IC50 [2, 7]: 0.1 nM; IC50 [4, 9]: 0.1 nM

**Q.** How did the IC50 [1, 6] turn out when `CCN(CC)CCCC(C)Nc1c(C)cnc2cc(Cl)ccc12` (stereo not shown) [Sontochin, 3-methyl-chloroquine, reference compound] was run?
**A.** The IC50 was 13.8 nM.

**Q.** What about the IC50 [2, 7] of the same molecule?
**A.** The IC50 was 11.3 nM.

**Q.** And the IC50 ([5]; range over strains as worded in text, read-out: IC50 values ranging, drug resistant strains of P. falciparum)?
**A.** Its IC50 is 8.6 to 13.8 nM.

**Q.** What about the IC50 [4, 9] of the same molecule?
**A.** Its IC50 is 8.6 nM.

**Q.** Which IC50 [1, 6] does the source give for `CCN(CC)CCNc1c(C)cnc2cc(Cl)ccc12` [Pharmachin 127, 7-Chloro-3-Methyl-4-(3-(diethylamino)-ethylamino)-Quinoline] here?
**A.** The IC50 was 18.3 nM.

**Q.** What about the IC50 [2, 7] of the same molecule?
**A.** The IC50 was 17.8 nM.

**Q.** And the IC50 [4, 9]?
**A.** Its IC50 is 14.1 nM.

**Q.** Which results are given for `CCN(CC)CCCC(C)Nc1ccnc2cc(Cl)ccc12` (stereo not shown) [Chloroquine, reference compound]?
**A.** IC50 ([1]; TM90, 72 h): 144 nM; IC50 ([2]; Plasmodium falciparum, DD2, 72 h): 160 nM; IC50 ([3]; Plasmodium falciparum, 7G8, 72 h): 55 nM; IC50 ([4]; Plasmodium falciparum, D6, 72 h, read-out: Antiplasmodial IC50, D6 strain): 11.2 nM

**Q.** How did the IC50 [2, 7] turn out when `Cc1cnc2cc(Cl)ccc2c1N1CCN(CCCN2CCN(c3c(C)cnc4cc(Cl)ccc34)CC2)CC1` [3-methyl-piperaquine] was run?
**A.** The IC50 was 6.5 nM.

**Q.** And the IC50 [3, 8]?
**A.** The IC50 was 9.5 nM.

**Q.** And the IC50 [4, 9]?
**A.** Its IC50 is 4.6 nM.

**Q.** Which results are given for `Clc1ccc2c(NCCCNC34CC5CC(CC(C5)C3)C4)ccnc2c1` [AQ-13-AD, 7-Chloro-(3-adamantylamino)-aminopropylquinoline]?
**A.** IC50 [1, 6]: 4.9 nM; IC50 [2, 7]: 4.2 nM; IC50 [4, 9]: 3.8 nM

**Q.** `CCN(CC)CCCNC1=CCNc2cc(Cl)ccc21` [AQ-13, reference compound] was tested. Which IC50 [2, 7] did it give?
**A.** Its IC50 is 8.1 nM.

**Q.** What about the IC50 [3, 8] of the same molecule?
**A.** Its IC50 is 12 nM.

**Q.** And the “Antiplasmodial activity against all tested drug resistant strains” value ([5]; in words)?
**A.** Its value is “high level of antiplasmodial activity”.

**Q.** And the IC50 [4, 9]?
**A.** Its IC50 is 7.2 nM.

**Q.** How did the IC50 [2, 7] turn out when `Cc1cnc2ccc(Cl)cc2c1NCCCNC(C)(C)C` [Pharmachin 129, 6-Chloro-3-Methyl-4-(3-t-butylaminopropylamino)-Quinoline] was run?
**A.** Its IC50 is 127 nM.

**Q.** And the IC50 [4, 9]?
**A.** The IC50 was 94.8 nM.
